Measurements published in ChEMBL document CHEMBL5244269, “Improving metabolic stability and removing aldehyde oxidase liability in a 5-azaquinazoline series of IRAK4 inhibitors” (Bioorg Med Chem, 2020).

How the values were obtained:
[1] = target: High affinity nerve growth factor receptor (Homo sapiens, UniProt P04629); test: Inhibition of TRKA (unknown origin) in presence of 400 uM ATP
Homo sapiens [2] = species on record: Homo sapiens; test: Selectivity index, ratio of IC50 for inhibition of BTK (unknown origin) to IC50 for inhibition of IRAK4 (unknown origin)
[3] = target: Tyrosine-protein kinase BTK (Homo sapiens, UniProt Q06187); test: Inhibition of BTK (unknown origin) in presence of 25 uM ATP
Tyrosine-protein kinase BTK, sequence (Q06187 whole entry): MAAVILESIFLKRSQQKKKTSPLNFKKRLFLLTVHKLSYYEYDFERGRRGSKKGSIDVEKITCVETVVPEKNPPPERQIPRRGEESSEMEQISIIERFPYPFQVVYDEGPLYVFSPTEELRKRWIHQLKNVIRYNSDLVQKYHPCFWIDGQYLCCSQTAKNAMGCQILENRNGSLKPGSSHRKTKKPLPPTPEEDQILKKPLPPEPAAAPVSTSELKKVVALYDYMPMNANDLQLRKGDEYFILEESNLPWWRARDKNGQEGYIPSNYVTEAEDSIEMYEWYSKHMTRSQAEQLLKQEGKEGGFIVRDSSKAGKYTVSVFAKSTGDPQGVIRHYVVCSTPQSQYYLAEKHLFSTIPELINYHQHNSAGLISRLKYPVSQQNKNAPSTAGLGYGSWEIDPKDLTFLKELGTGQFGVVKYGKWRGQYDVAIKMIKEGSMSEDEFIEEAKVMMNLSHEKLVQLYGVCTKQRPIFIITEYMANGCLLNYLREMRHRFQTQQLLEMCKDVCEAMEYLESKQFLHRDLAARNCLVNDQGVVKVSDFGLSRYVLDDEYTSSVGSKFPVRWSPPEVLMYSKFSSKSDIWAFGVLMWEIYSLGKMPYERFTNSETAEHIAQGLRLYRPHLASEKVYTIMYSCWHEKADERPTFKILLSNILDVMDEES

Homo sapiens [4] = species on record: Homo sapiens; test: Selectivity index, ratio of IC50 for inhibition of IRAK1 (unknown origin) to IC50 for inhibition of IRAK4 (unknown origin)
[5] = Metabolic stability in human cytosol assessed as intrinsic clearance; type: ADME, subcellular
[6] = target: Interleukin-1 receptor-associated kinase 1 (Homo sapiens, UniProt P51617); test: Inhibition of IRAK1 (unknown origin) in presence of 25 uM ATP
Interleukin-1 receptor-associated kinase 1, sequence (P51617 whole entry): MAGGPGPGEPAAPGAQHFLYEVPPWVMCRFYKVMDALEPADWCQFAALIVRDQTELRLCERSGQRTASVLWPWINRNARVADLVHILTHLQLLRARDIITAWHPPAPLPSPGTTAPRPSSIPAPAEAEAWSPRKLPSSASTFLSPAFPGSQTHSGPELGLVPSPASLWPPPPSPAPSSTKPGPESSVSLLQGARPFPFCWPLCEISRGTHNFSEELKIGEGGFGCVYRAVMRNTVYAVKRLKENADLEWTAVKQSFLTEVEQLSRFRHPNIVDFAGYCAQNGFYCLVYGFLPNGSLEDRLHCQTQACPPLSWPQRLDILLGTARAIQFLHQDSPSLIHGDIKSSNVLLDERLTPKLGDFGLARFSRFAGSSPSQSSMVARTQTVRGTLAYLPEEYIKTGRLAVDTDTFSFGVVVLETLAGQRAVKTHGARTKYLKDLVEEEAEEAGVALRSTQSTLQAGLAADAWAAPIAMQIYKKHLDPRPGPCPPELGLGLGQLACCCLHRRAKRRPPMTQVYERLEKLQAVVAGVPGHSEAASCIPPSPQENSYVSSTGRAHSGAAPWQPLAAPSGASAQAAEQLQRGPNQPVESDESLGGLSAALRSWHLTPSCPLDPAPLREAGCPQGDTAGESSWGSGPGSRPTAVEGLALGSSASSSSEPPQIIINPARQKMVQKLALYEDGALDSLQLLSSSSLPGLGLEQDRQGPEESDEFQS

[7] = target: T1, Interleukin-1 receptor-associated kinase 4 (Homo sapiens, UniProt Q9NWZ3); test: Inhibition of IRAK4 (unknown origin) phosphorylation by cell based assay
T1 sequence (Q9NWZ3 whole entry): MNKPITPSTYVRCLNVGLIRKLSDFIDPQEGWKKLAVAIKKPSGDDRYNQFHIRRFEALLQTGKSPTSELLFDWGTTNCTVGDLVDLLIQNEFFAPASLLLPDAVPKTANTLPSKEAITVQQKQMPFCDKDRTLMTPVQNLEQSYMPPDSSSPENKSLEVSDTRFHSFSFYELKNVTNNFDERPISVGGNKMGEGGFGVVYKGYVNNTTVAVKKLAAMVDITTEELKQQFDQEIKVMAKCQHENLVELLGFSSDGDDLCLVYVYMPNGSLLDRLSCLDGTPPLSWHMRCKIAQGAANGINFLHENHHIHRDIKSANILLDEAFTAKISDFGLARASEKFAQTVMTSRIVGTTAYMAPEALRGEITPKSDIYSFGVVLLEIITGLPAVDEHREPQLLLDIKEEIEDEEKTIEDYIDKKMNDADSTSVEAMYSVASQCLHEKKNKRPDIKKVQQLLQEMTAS

[8] = target: T2, Receptor-type tyrosine-protein kinase FLT3 (Homo sapiens, UniProt P36888); test: Inhibition of FLT3 (unknown origin) in presence of 600 uM ATP
T2 sequence (P36888 whole entry): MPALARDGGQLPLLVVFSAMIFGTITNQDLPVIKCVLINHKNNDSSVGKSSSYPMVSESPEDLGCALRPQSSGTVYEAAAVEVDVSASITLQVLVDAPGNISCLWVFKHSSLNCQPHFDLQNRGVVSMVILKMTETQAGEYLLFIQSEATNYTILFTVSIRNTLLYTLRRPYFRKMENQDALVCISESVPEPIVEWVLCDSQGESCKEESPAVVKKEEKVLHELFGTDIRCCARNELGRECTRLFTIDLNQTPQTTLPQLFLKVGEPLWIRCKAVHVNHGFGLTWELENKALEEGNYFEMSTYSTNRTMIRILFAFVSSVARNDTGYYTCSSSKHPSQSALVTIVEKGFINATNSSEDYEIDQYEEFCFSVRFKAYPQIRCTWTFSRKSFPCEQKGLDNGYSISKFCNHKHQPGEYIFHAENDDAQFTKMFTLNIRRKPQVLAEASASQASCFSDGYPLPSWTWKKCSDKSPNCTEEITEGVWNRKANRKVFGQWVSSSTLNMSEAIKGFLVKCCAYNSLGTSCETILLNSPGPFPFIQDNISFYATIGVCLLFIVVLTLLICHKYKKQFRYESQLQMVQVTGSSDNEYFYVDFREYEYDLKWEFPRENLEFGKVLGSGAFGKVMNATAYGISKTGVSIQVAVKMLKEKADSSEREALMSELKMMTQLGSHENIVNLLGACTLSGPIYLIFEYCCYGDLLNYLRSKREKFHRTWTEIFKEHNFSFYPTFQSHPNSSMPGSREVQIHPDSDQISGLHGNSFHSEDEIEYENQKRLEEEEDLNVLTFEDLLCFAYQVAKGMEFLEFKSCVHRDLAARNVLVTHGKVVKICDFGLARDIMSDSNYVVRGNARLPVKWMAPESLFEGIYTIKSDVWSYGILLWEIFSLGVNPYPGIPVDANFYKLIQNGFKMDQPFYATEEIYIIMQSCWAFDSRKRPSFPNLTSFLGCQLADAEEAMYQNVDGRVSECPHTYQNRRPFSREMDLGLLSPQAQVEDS

[9] = target: T1, Interleukin-1 receptor-associated kinase 4; test: Inhibition of IRAK4 (unknown origin) in presence of ATP by enzymatic assay
Homo sapiens [10] = species on record: Homo sapiens; test: Selectivity index, ratio of IC50 for inhibition of TRKB (unknown origin) to IC50 for inhibition of IRAK4 (unknown origin)
Homo sapiens [11] = species on record: Homo sapiens; test: Selectivity index, ratio of IC50 for inhibition of PI3Kdelta (unknown origin) to IC50 for inhibition of IRAK4 (unknown origin)
[12] = Metabolic stability in human hepatocytes assessed as intrinsic clearance measured per 10^6 cells; type: ADME, cell-based, Hepatocyte; details: read-out: CLH
[13] = target: T3, Phosphatidylinositol 4,5-bisphosphate 3-kinase catalytic subunit delta isoform (Homo sapiens, UniProt O00329); test: Inhibition of PI3Kdelta (unknown origin) in presence of […] uM ATP
T3 sequence (O00329 whole entry): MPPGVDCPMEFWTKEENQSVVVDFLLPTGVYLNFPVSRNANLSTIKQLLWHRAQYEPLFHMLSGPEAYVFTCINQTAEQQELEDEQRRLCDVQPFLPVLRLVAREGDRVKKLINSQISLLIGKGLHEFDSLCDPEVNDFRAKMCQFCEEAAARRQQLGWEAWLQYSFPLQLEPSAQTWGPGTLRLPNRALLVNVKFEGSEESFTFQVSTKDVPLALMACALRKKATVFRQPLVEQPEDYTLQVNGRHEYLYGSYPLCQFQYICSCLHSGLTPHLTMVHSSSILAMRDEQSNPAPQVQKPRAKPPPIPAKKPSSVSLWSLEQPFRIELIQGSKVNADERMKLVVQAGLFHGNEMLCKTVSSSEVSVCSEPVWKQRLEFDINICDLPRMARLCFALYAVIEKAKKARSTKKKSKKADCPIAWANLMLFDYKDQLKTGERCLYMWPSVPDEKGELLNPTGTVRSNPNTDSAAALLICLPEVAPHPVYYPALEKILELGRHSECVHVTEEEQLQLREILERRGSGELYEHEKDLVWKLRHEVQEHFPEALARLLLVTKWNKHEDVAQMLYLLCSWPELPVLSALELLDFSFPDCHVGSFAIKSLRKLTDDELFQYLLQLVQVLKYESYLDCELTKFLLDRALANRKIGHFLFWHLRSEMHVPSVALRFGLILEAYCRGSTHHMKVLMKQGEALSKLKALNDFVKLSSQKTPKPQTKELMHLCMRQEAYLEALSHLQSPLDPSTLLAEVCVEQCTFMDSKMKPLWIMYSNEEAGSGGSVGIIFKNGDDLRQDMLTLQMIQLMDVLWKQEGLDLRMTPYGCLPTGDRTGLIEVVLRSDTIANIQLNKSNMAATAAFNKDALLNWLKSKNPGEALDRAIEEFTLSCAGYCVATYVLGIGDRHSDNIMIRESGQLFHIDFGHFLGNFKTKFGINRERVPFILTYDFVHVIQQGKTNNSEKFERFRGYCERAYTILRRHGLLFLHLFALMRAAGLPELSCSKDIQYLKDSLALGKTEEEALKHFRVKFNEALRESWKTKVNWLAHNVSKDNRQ

Homo sapiens [14] = species on record: Homo sapiens; test: Selectivity index, ratio of IC50 for inhibition of TRKA (unknown origin) to IC50 for inhibition of IRAK4 (unknown origin)
[15] = target: NT-3 growth factor receptor (Homo sapiens, UniProt Q16288); test: Inhibition of TRKC (unknown origin) in presence of 50 uM ATP
NT-3 growth factor receptor, sequence (Q16288 whole entry): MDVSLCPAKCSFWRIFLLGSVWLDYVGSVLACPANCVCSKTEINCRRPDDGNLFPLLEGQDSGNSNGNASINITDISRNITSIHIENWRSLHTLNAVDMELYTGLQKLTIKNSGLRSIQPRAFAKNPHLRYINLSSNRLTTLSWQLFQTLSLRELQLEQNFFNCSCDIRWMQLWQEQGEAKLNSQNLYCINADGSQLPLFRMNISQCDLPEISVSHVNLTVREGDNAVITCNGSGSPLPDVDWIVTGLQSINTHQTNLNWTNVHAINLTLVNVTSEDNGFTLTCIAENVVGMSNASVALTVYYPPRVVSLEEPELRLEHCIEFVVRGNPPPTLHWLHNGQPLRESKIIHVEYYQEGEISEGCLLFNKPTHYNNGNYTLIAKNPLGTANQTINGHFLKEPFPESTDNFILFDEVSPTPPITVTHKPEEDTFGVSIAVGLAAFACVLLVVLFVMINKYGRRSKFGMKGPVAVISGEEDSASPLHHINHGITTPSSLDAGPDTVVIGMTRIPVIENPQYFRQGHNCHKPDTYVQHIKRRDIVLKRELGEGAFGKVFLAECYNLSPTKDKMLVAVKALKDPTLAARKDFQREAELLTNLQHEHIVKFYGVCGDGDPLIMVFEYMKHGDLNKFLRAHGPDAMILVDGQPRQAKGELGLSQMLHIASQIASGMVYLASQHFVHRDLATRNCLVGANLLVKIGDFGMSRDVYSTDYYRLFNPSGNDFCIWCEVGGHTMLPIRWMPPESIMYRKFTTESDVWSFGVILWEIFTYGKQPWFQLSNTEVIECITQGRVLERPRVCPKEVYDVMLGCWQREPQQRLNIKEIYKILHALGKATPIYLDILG

[16] = target: BDNF/NT-3 growth factors receptor (Homo sapiens, UniProt Q16620); test: Inhibition of TRKB (unknown origin) in presence of 25 uM ATP
BDNF/NT-3 growth factors receptor, sequence (Q16620 whole entry): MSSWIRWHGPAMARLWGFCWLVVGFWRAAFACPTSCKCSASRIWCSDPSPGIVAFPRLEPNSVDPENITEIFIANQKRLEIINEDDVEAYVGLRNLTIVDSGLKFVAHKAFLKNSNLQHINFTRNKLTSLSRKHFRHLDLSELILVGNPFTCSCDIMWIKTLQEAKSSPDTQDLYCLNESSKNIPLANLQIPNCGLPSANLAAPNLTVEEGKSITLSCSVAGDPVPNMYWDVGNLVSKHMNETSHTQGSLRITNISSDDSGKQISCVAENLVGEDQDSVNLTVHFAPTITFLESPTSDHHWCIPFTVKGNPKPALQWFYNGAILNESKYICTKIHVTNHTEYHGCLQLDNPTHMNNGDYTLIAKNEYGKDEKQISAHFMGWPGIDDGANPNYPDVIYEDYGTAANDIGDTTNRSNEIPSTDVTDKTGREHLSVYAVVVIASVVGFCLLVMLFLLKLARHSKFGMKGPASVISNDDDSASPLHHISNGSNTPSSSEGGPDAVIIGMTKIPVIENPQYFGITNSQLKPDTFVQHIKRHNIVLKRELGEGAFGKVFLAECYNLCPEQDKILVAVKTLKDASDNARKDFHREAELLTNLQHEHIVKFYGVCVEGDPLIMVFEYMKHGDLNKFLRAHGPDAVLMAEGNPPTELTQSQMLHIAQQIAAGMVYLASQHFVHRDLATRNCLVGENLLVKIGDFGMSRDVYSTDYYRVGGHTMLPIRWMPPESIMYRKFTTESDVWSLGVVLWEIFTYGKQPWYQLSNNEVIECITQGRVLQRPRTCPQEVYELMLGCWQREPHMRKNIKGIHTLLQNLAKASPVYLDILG

[17] = Lipophilicity, LogD at pH 7.4 of the compound by shake flask method; type: physicochemical; details: buffer
[18] = Metabolic stability in human liver microsomes assessed as intrinsic clearance; type: ADME, Microsome; details: read-out: CLH
Homo sapiens [19] = species on record: Homo sapiens; test: Selectivity index, ratio of IC50 for inhibition of TRKC (unknown origin) to IC50 for inhibition of IRAK4 (unknown origin)
Homo sapiens [20] = species on record: Homo sapiens; test: Selectivity index, ratio of IC50 for inhibition of FLT3 (unknown origin) to IC50 for inhibition of IRAK4 (unknown origin)

High affinity nerve growth factor receptor, sequence (P04629 whole entry): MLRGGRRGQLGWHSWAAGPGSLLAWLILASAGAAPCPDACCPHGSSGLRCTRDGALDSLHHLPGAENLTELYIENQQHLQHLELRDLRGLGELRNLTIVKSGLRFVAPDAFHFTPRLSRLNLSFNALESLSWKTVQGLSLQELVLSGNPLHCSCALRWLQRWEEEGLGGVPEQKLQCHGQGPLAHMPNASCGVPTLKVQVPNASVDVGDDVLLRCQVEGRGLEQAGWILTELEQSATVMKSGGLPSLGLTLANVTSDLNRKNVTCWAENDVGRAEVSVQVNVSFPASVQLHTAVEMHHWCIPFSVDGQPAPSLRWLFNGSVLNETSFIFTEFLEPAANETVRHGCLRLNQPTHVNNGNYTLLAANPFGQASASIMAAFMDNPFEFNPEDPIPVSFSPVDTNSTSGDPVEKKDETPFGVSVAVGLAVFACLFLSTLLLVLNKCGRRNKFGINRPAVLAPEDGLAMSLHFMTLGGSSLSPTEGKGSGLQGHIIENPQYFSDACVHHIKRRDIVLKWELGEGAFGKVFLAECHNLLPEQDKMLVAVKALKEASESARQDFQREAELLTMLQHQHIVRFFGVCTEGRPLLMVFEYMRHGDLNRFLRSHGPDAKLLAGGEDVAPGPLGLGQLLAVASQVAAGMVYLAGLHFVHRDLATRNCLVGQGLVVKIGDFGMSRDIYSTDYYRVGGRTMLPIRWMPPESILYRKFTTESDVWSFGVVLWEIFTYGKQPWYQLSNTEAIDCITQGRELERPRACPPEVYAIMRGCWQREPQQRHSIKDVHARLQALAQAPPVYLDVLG

IC50 [1]: 0.019 µM | Ratio IC50 (Homo sapiens [2]): 70 | IC50 [3]: 0.044 µM | Ratio IC50 (Homo sapiens [4]): 3 | microsomal CLint [5]: 191 µL/min/mg | IC50 [6]: 0.002 µM | IC50 [7]: 0.024 µM | IC50 [8]: 1.2 µM | IC50 [9]: 0.0006 µM | Ratio IC50 (Homo sapiens [10]): 140 | Ratio IC50 (Homo sapiens [11]): 30 | hepatocyte CLint [12]: 110 µL/min/1e6 cells | IC50 [13]: 0.018 µM | Ratio IC50 (Homo sapiens [14]): 32 | IC50 [15]: 0.036 µM | IC50 [16]: 0.082 µM | logD [17]: 2 | microsomal CLint [18]: 96 µL/min/mg | Ratio IC50 (Homo sapiens [19]): 60 | Ratio IC50 (Homo sapiens [20]): > 1000
Structure (SMILES): CN1CCC(n2cc(Nc3nc(OC4(C)CC4)c4nc(-c5cncnc5)ccc4n3)cn2)CC1
